Experimental data taken from paper PMC9821108, “Biochemical and Structural Analyses Shed Light on the Mechanisms of RadD DNA Binding and Its ATPase from Escherichia coli” (International Journal of Molecular Sciences, 2023).

How the values were obtained:
[1] = target: T1, RadD (Escherichia coli, UniProt P33919); experiment: X-ray crystal structure, […] Å; assay type: binding; details: co-crystallised with 5 mM ATP and 5 mM MgCl2, ATP hydrolysed to ADP in the crystal; site between RD1 and RD2
T1 construct: recombinant RadD from RadD-pET-28a / RadD-pGEX-6p-1 plasmids expressed in E. coli; full-length with RD1, RD2, ZFD, CTD
T1 sequence (P33919 1-586): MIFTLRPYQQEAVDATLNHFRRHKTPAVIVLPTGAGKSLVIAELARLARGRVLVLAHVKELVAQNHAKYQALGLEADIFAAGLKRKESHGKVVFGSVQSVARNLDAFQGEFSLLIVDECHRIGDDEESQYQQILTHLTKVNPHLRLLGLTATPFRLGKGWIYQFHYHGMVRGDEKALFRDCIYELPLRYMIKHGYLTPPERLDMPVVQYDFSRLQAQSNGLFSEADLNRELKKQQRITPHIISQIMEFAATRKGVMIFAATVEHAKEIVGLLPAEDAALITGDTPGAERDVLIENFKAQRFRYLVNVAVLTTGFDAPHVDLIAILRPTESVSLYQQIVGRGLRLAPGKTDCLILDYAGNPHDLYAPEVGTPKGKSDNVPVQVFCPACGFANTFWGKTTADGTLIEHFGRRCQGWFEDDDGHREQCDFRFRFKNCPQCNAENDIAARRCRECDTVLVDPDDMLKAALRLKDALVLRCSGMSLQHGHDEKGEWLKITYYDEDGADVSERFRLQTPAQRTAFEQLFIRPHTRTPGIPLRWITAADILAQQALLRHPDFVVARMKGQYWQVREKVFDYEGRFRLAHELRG

[2] = target: T2, RadD (Escherichia coli, UniProt P33919, K68A); experiment: malachite green phosphate release ATPase assay; assay type: biochemical; details: 0.375 μM enzyme, 1 mM ATP; buffer as above
T2 construct: recombinant RadD from RadD-pET-28a / RadD-pGEX-6p-1 plasmids expressed in E. coli; full-length with RD1, RD2, ZFD, CTD

[3] = target: T3, RadD (Escherichia coli, UniProt P33919, R343A); experiment: malachite green phosphate release ATPase assay; assay type: biochemical; details: 0.375 μM enzyme, 1 mM ATP; buffer as above
T3 construct: recombinant RadD from RadD-pET-28a / RadD-pGEX-6p-1 plasmids expressed in E. coli; full-length with RD1, RD2, ZFD, CTD

[4] = target: T4, RadD (Escherichia coli, UniProt P33919, R6A); experiment: malachite green phosphate release ATPase assay; assay type: biochemical; details: 0.375 μM enzyme, 1 mM ATP; buffer as above
T4 construct: recombinant RadD from RadD-pET-28a / RadD-pGEX-6p-1 plasmids expressed in E. coli; full-length with RD1, RD2, ZFD, CTD

[5] = target: T5, RadD (Escherichia coli, UniProt P33919, G36E); experiment: malachite green phosphate release ATPase assay; assay type: biochemical; details: 0.375 μM enzyme, 1 mM ATP; buffer as above
T5 construct: recombinant RadD from RadD-pET-28a / RadD-pGEX-6p-1 plasmids expressed in E. coli; full-length with RD1, RD2, ZFD, CTD

[6] = target: T6, RadD (Escherichia coli, UniProt P33919, G34E); experiment: malachite green phosphate release ATPase assay; assay type: biochemical; details: 0.375 μM enzyme, 1 mM ATP; buffer as above
T6 construct: recombinant RadD from RadD-pET-28a / RadD-pGEX-6p-1 plasmids expressed in E. coli; full-length with RD1, RD2, ZFD, CTD

[7] = target: T7, RadD (Escherichia coli, UniProt P33919, K37A); experiment: malachite green phosphate release ATPase assay; assay type: biochemical; details: 0.375 μM enzyme, 1 mM ATP; buffer as above
T7 construct: recombinant RadD from RadD-pET-28a / RadD-pGEX-6p-1 plasmids expressed in E. coli; full-length with RD1, RD2, ZFD, CTD

[8] = target: T8, RadD (Escherichia coli, UniProt P33919, D117R); experiment: malachite green phosphate release ATPase assay; assay type: biochemical; details: 0.375 μM enzyme, 1 mM ATP; buffer as above
T8 construct: recombinant RadD from RadD-pET-28a / RadD-pGEX-6p-1 plasmids expressed in E. coli; full-length with RD1, RD2, ZFD, CTD

[9] = target: T1, RadD; experiment: X-ray crystal structure, […] Å; assay type: binding; details: co-crystallised with 5 mM ATPγS, no Mg added; site between RD1 and RD2
[10] = target: RadD CTD (Escherichia coli) (UniProt P33919); experiment: EMSA; details: 20 mM Bis-Tris pH 6.5, 50 mM NaCl, 15% glycerol, 10 mM beta-mercaptoethanol, 37 C 30 min, 33 nM HJ, 0-20 uM RadD; 8% native PAGE in 0.5x TBE; text says …
[11] = target: RadD ZFD (Escherichia coli) (UniProt P33919); experiment: EMSA; details: 20 mM Bis-Tris pH 6.5, 50 mM NaCl, 15% glycerol, 10 mM beta-mercaptoethanol, 37 C 30 min, 33 nM HJ, 0-20 uM RadD; 8% native PAGE in 0.5x TBE; text says …
[12] = substrate: Nc1ncnc2c1ncn2[C@@H]1O[C@H](COP(=O)(O)OP(=O)(O)OP(=O)(O)O)[C@@H](O)[C@H]1O; experiment: malachite green phosphate release ATPase assay; assay type: biochemical, Escherichia coli; details: 0.4 μM RadD, 20 mM Hepes pH 7.5, 150 mM NaCl, 3 mM MgCl2, 20 °C, 30 min, no DNA or SSB

T2 sequence (P33919 whole entry K68A): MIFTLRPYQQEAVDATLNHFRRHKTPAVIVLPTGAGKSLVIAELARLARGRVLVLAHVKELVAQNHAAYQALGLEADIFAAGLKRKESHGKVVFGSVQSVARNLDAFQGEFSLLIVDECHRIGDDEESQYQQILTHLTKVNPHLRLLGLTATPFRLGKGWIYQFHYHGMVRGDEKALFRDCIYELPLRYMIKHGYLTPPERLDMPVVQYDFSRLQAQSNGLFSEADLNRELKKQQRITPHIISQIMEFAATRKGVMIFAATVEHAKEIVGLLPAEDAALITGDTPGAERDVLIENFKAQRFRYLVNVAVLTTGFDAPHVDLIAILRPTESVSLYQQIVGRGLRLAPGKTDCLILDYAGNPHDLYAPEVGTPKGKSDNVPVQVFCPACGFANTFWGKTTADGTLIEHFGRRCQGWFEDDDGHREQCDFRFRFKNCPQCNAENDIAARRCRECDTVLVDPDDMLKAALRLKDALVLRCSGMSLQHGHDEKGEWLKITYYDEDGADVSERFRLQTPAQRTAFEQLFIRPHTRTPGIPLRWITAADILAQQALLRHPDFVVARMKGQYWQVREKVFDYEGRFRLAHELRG
T8 sequence (P33919 whole entry D117R): as the sequence (P33919 whole entry K68A) above, with A68K, D117R counted along it
T4 sequence (P33919 whole entry R6A): as the sequence (P33919 whole entry K68A) above, with R6A, A68K counted along it
T3 sequence (P33919 whole entry R343A): as the sequence (P33919 whole entry K68A) above, with A68K, R343A counted along it
T5 sequence (P33919 whole entry G36E): as the sequence (P33919 whole entry K68A) above, with G36E, A68K counted along it
T6 sequence (P33919 whole entry G34E): as the sequence (P33919 whole entry K68A) above, with G34E, A68K counted along it
T7 sequence (P33919 whole entry K37A): as the sequence (P33919 whole entry K68A) above, with K37A, A68K counted along it

With `Nc1ncnc2c1ncn2[C@@H]1O[C@H](COP(=O)(O)OP(=O)(O)O)[C@@H](O)[C@H]1O` [ADP] the “X-ray crystal structure, 2.7 Å” value [1] was “RadD/ADP PDB: 8H5Y”.

`Nc1ncnc2c1ncn2[C@@H]1O[C@H](COP(=O)(O)OP(=O)(O)OP(=O)(O)O)[C@@H](O)[C@H]1O` [ATP] was tested, and the ATPase activity [2] was “The ATPase activity of mutant K68A is three times that of the wild-type”, the ATPase activity [3] was “mutant G34E, G36E, K37A, D117R, and R343A lost their ATPase activity” and the ATPase activity [4] was “mutants R6A and N9A were not significantly different from the wild-type”. The ATPase activity [5] was “mutant G34E, G36E, K37A, D117R, and R343A lost their ATPase activity”, the ATPase activity [6] was “mutant G34E, G36E, K37A, D117R, and R343A lost their ATPase activity” and the ATPase activity [7] was “mutant G34E, G36E, K37A, D117R, and R343A lost their ATPase activity”. The ATPase activity [8] was “mutant G34E, G36E, K37A, D117R, and R343A lost their ATPase activity”.

With `Nc1ncnc2c1ncn2[C@@H]1O[C@H](COP(=O)(O)OP(=O)(O)OP(O)(O)=S)[C@@H](O)[C@H]1O` [ATPγS] the “X-ray crystal structure, 3.0 Å” value [9] was “RadD/ATPγS PDB: 8H5Z”.

In the case of “CCGCTACCAGTGATCACCAATGGATTGCTAGGACATCTTTGCCCACCTGCAGGTTCACCC / TGGGTGAACCTGCAGGTGGGCAAAGATGTCCTAGCAATCCATTGTCTATGACGTCAAGCTC / GAGCTTGACGTCATAGACAATGGATTGCTAGGACATCTTTGCCGTCTTGTCAATATCGGC / TGCCGATATTGACAAGACGGCAAAGATGTCCTAGCAATCCATTGGTGATCACTGGTAGCGG [Holliday junction (HJ)]”, the binding signal [10] is reported as 47 % of WT and the binding signal [11] is reported as 43 % of WT.

B1: RadD (Escherichia coli K-12) (protein)
chain: MIFTLRPYQQEAVDATLNHFRRHKTPAVIVLPTGAGKSLVIAELARLARGRVLVLAHVKELVAQNHAKYQALGLEADIFAAGLKRKESHGKVVFGSVQSVARNLDAFQGEFSLLIVDECHRIGDDEESQYQQILTHLTKVNPHLRLLGLTATPFRLGKGWIYQFHYHGMVRGDEKALFRDCIYELPLRYMIKHGYLTPPERLDMPVVQYDFSRLQAQSNGLFSEADLNRELKKQQRITPHIISQIMEFAATRKGVMIFAATVEHAKEIVGLLPAEDAALITGDTPGAERDVLIENFKAQRFRYLVNVAVLTTGFDAPHVDLIAILRPTESVSLYQQIVGRGLRLAPGKTDCLILDYAGNPHDLYAPEVGTPKGKSDNVPVQVFCPACGFANTFWGKTTADGTLIEHFGRRCQGWFEDDDGHREQCDFRFRFKNCPQCNAENDIAARRCRECDTVLVDPDDMLKAALRLKDALVLRCSGMSLQHGHDEKGEWLKITYYDEDGADVSERFRLQTPAQRTAFEQLFIRPHTRTPGIPLRWITAADILAQQALLRHPDFVVARMKGQYWQVREKVFDYEGRFRLAHELRG
notes: recombinant RadD from RadD-pET-28a / RadD-pGEX-6p-1 plasmids expressed in E. coli; full-length with RD1, RD2, ZFD, CTD
B1 gave a Km [12] of 3.48 mM.
